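A five-concentration, 48-hour dose response in 96-well plates underlies each endpoint, interpolated linearly between surrounding concentrations. Abbreviation: GI50, concentration required for 50% inhibition of growth. TGI denotes the concentration required for complete inhibition of growth.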
Experiments:
Assay in all cases: inhibition of tumour cell growth, NCI panel, 48 h
[1] = system: HCT-15 colon
[2] = system: K-562 leukemia
[3] = system: SNB-75 CNS
[4] = system: HCC-2998 colon
[5] = system: OVCAR-8 ovarian
[6] = system: SW-620 colon
[7] = system: UACC-62 melanoma
[8] = system: SN12C renal
[9] = system: OVCAR-4 ovarian
[10] = system: IGROV1 ovarian

Row | Compound | TGI [1] | TGI [2] | TGI [3] | TGI [4] | TGI [5] | TGI [6] | TGI [7] | TGI [8] | TGI [9] | TGI [10] | GI50 [1] | GI50 [2] | GI50 [3] | GI50 [4] | GI50 [5] | GI50 [6] | GI50 [7] | GI50 [8] | GI50 [9] | GI50 [10]
1 | CN(C)C=NC1CCC(C(C)(C)C)CC1 (centres undefined) | 32.8 µM | 45.1 µM | 34.9 µM | 27.9 µM | 28.9 µM | 34.4 µM | 33.8 µM | 34.6 µM | 51.1 µM | 37.9 µM |  |  |  |  |  |  |  |  |  | 
2 | CCN(CC)CCC(CNc1ccnc2cc(Cl)ccc12)c1ccccc1 (centres undefined) | 20.8 µM | 5.61 µM | 9.82 µM | 6.6 µM | 20.5 µM | 22.2 µM | 5.05 µM | > 100 µM | 35.7 µM | 55.7 µM | 3.51 µM | 1.46 µM | 2.61 µM | 2.09 µM | 5.05 µM | 4.81 µM | 2.04 µM | 16.3 µM | 5.89 µM | 7.98 µM
3 | COC1=C(OC)C(=O)C(Sc2ccc3ccccc3c2)=CC1=O | 44.7 µM | 10.3 µM | 29.8 µM | 26.1 µM | 82.4 µM | > 61 µM | 20.5 µM | 26.5 µM | 48.5 µM | 39 µM |  |  |  |  |  |  |  |  |  | 
4 | CCCCCCCCCCCCCCCCc1c(C(=O)OC)nc(NN)[nH]c1=O | > 50 µM | > 50 µM | > 50 µM | > 50 µM | > 50 µM | > 50 µM | > 50 µM | > 50 µM | > 50 µM | > 50 µM |  |  |  |  |  |  |  |  |  | 
5 | Nc1nnnc2nc[nH]c12 | > 100 µM | > 100 µM | > 100 µM | > 34.7 µM | > 100 µM | > 100 µM | 2.72 µM | > 100 µM | > 100 µM | > 100 µM | 2.64 µM | 3.72 µM |  | 1.26 µM | 1.26 µM | 0.78 µM | 0.637 µM | 2.25 µM | 0.547 µM | 4.75 µM
6 | Clc1ccc(CCc2ccncn2)c(Cl)c1 | > 100 µM | > 100 µM | > 100 µM | > 100 µM | > 100 µM | > 100 µM | > 100 µM | > 100 µM | > 100 µM | > 100 µM |  |  |  |  |  |  |  |  |  | 
7 | CCCCCCCCCCSC(=O)NC | 54.8 µM | 67.7 µM | > 100 µM | > 100 µM | 87.7 µM | > 100 µM | > 100 µM | 74.4 µM | > 100 µM | > 100 µM |  |  |  |  |  |  |  |  |  | 
8 | O=C1c2cccnc2C(=O)c2c1c(C(=O)NCCn1ccnc1)c1ccccn21 | 15.1 µM | > 100 µM | 16.8 µM | 9.82 µM | 8.06 µM | 11.1 µM | 4.4 µM | 7.28 µM | 3.95 µM | 14.2 µM | 3.31 µM | 4.39 µM | 3.24 µM | 2.23 µM | 2.48 µM | 2.55 µM | 1.84 µM | 2.28 µM | 1.62 µM | 3.27 µM

Reference: PubChem BioAssay (NCI)
